For 63 compounds, IC50 results are on record in patent US10723708B2, “Anti-HCMV compositions and methods” (FORGE Life Science, LLC, priority 2014, dated 2020).

The assay deals with human cytomegalovirus (HCMV). Nature of the assay: Antiviral activity against HCMV, virus yield/replication assay in MRC5 cells. In kind it is cell-based. The settings on record: Human betaherpesvirus 5; infected human MRC5 cells; virus yield in supernatant at 96 hours / four days, read by IE protein expression in fresh MRC5 cells. On the procedure:
Assessing Antiviral Activity Against Human Cytomegalovirus (HCMV)
To assess their antiviral activity, some compounds were tested against human cytomegalovirus (HCMV) in vitro. Human MRC5 cells were grown in Dulbecco's Modified Eagle Medium (DMEM) supplemented with 10% fetal bovine serum (FBS) and infected with an HCMV variant expressing GFP tagged pUL99 (the product of late viral UL99 gene) at a multiplicity of 1 infectious unit (IU) per cell. One hour later, medium of the cells was replaced with fresh medium containing the indicated compounds at 50, 25, 12.5, 6.25, 3.13, 1.56, 0.78, 0.39 μM or the carrier in which the compounds are dissolved (DMSO). Final concentration of DMSO was 0.5% in each treatment. Virus yield in the culture supernatant was determined at 96 hours after infection by infecting fresh MRC5 cells and assaying viral IE1 protein expression. Results were plotted using either Prism Software or CDD Vault (CDD Vault was developed by Collaborative Drug Discovery, Inc., 1633 Bayshore Hwy, Suite 342, Burlingame, Calif. 94010) in order to calculate IC50s.
Alternatively, antiviral efficacy of some compounds was assessed by inhibition of HCMV replication during in vitro replication assays. Briefly, confluent monolayers of MRC5 fibroblasts in a 96 well plate format (˜1.0×10^4 cells/well) were infected with an AD169 strain of HCMV for one hour. After the initial incubation hour, virus containing media was removed and 100 ul of media with sequential dilutions of FORGE compounds added to each well. The concentrations of the FORGE compounds were 50 μM, 25 μM, […], 6.25 μM, 3.125 μM, 1.56 μM, and 0.78125 μM as well as a vehicle control (0.5% DMSO). The concentration of DMSO was constant between all conditions. Assays were performed in duplicate. Infected plates were returned to the incubator and the viral infection was allowed to progress for four days. On the fourth day, 50 μL of cell free supernatant was collected from each well and used to infect a new 96 well plate seeded with a confluent monolayer of MRC5 fibroblasts along with 50 μL of media to bring the total volume to 100 μL. The next day the media was removed and the infected monolayer was fixed with cold methanol, and Immediate Early proteins were detected by immunofluorescence assays to quantify the number of cells that were infected with HCMV. IE gene expression was quantified within five random fields within each well and corresponding numbers were utilized to determine viral replication. Results from each well were normalized to the vehicle control well so as to allow a percent reduction from no drug treatment to be calculated. Results were plotted using either Prism Software or CDD Vault in order to calculate IC50s.
`COc1ccc(C(C)CC(=O)Nc2cnc3ccccc3c2)cc1` (stereo not drawn) [Example 2] gave an IC50 above 50 µM. The figure for `COc1ccccc1C(C)C(F)C(=O)Nc1cccc2cccnc12` (stereo not drawn) [Example 26] is 5.38 ± 3.93 µM; for `COc1ccccc1C(C)C(O)CNc1cccc2cccnc12` (stereo not drawn) [Example 27] it is 28.5 ± 2.68 µM; for `COc1ccc(C(C)CCNc2cccc3cccnc23)cc1` (stereo not drawn) [Example 15] it is 3.27 ± 0.41 µM. On to `COc1ccccc1C(C)CC(=O)Nc1cccc2[nH]ccc12` (stereo not drawn) [Example 43], for which inhibition was half-maximal at 12.5 ± 4.14 µM (IC50). Regarding `COc1cccc(C(C)CCNc2ccc3ncccc3c2)c1` (stereo not drawn) [Example 11], the IC50 turned out to be 5.75 ± 2.47 µM. The compound `COc1cccc(C(C)CCNc2cccc3cccnc23)c1` (stereo not drawn) [Example 17] registered an IC50 of 2.69 ± 0.94 µM. Next, `CC(CCCNc1cccc2cccnc12)c1ccccc1Cl` (stereo not drawn) [FH000006-K-8]: 6.3 µM. Next, `CC(CCNc1cnc2ccccc2c1)c1ccccc1Cl` (stereo not drawn) [Example 5]: 18.6 ± 4.62 µM; `COc1ccccc1C(C)C(C)CNc1cccc2cccnc12` (stereo not drawn) [Example 28]: 2.89 ± 0.95 µM.

`Cc1ccccc1C(C)CCNc1cccc2cccnc12` (stereo not drawn) [Example 23] displayed an IC50 of 2.01 ± 0.71 µM. The figure for `COc1ccccc1CCC(=O)Nc1cccc2cccnc12` [Example 31] is above 50 µM. `COc1ccccc1C(C)CC(=O)Nc1ccc2ncccc2c1` (stereo not drawn) [Example 14] came in with a 50% inhibitory concentration (IC50) of 2.2 ± 1.32 µM. Compound `COc1ccccc1C(C)CCNc1cccc2ccccc12` (stereo not drawn) [Example 40] showed an IC50 of 2.83 ± 0.28 µM. With `COc1ccc(C(C)CCNc2cnc3ccccc3c2)cc1` (stereo not drawn) [Example 1], the IC50 is 25 to 50 µM. Next, `COc1ccc(Br)cc1C(C)CCNc1cccc2cccnc12` (stereo not drawn) [Example 46]: 21.7 ± 2.48 µM; `CC(CCNc1cccc2cccnc12)c1c(Cl)cccc1Cl` (stereo not drawn) [Example 51]: 1.94 ± 0.51 µM; `CC(CNc1cccc2nccnc12)c1cc(Cl)cc(Cl)c1` (stereo not drawn) [Example FLS-119]: 2.7 µM.

As to `CC(CC(=O)Nc1cnc2ccccc2c1)c1ccccc1Cl` (stereo not drawn) [Example 6], half-maximal inhibition (IC50) required 21.1 ± 14.5 µM. For `COc1ccccc1C(C)CCn1ccc2ccccc21` (stereo not drawn) [Example 36], the IC50 is above 50 µM. Next, `CC(CC(=O)Nc1cnc2ccccc2c1)c1ccccc1` (stereo not drawn) [Example 8]: 3.03 ± 0.69 µM; `COc1cccc(C(C)CC(=O)Nc2ccc3ncccc3c2)c1` (stereo not drawn) [Example 12]: 3.34 ± 1.45 µM.

On to `COc1cccc(C(C)CC(=O)Nc2cccc3cccnc23)c1` (stereo not drawn) [Example 18], for which the IC50 was above 50 µM.

Turning to `CC(CNc1cccc2[nH]ccc12)c1ccccc1Cl` (stereo not drawn) [Example FLS-120], inhibition was half-maximal at 5 µM (IC50). `CC(CCOc1cccc2cccnc12)c1ccccc1Cl` (stereo not drawn) [Example 52] showed an IC50 of 1.98 ± 0.68 µM. With `CC(CNc1cccc2nccnc12)c1ccccc1Cl` (stereo not drawn) [Example FLS-117], the IC50 turned out to be 3.2 µM. Compared with the last compound, the IC50 is about 1.6-fold higher. Take `COc1cccc(C(C)CC(=O)Nc2cnc3ccccc3c2)c1` (stereo not drawn) [Example 4]: the half-inhibitory concentration (IC50) is 21.2 ± 14.5 µM. Next, `CC(CCNc1ccc(Br)c2cccnc12)c1ccccc1` (stereo not drawn) [Example 53]: 11.6 ± 0.36 µM.

`COc1ccc(C(C)CC(=O)Nc2cccc3cccnc23)cc1` (stereo not drawn) [Example 16] showed an IC50 of 26.9 ± 11.5 µM.

In turn, `CC(CNc1cccc2nccnc12)c1cc(Cl)ccc1Cl` (stereo not drawn) [Example FLS-118] registered an IC50 of 3.2 µM. This IC50 lies about 8.4-fold lower than the previous one. The figure for `CC(CCNc1cccc2cccnc12)c1ccccn1` (stereo not drawn) [Example 34] is above 50 µM. Next, `CC(CC(=O)Nc1cccc2cccnc12)c1ccccc1Cl` (stereo not drawn) [Example 22]: 1.28 ± 1.82 µM. The figure for `CC(CCNc1cccc2cccnc12)c1ccccc1` (stereo not drawn) [Example 48] is above 50 µM; for `COc1ccccc1C(C)CC(=O)n1ccc2ccccc21` (stereo not drawn) [Example 37] it is above 50 µM; for `COc1ccc(C(C)CC(=O)Nc2ccc3ncccc3c2)cc1` (stereo not drawn) [Example 10] it is 5.82 ± 1.98 µM. For the compound `COc1ccc(Br)cc1C(C)CC(=O)Nc1cccc2cccnc12` (stereo not drawn) [Example 47], the IC50 stood at 5.88 ± 1.93 µM. Take `CC(CC(=O)Nc1cccc2cccnc12)c1ccccc1` (stereo not drawn) [Example 49]: the half-inhibitory concentration (IC50) was above 50 µM.

In the case of `COc1ccccc1C(C)CCNc1cccc2[nH]ccc12` (stereo not drawn) [Example 42], it took 1.32 ± 0.84 µM to reach half-maximal inhibition (IC50). The figure for `COc1ccccc1C(C)CC(=O)Nc1cccc2cccnc12` (stereo not drawn) [Example 20] is 19.7 ± 14.7 µM.

For the compound `CC(CNc1cccc2[nH]ccc12)C(C)c1ccccc1Cl` (stereo not drawn) [Example FLS-116], the IC50 was found to be 3.5 µM. The figure for `COc1cccc(C(C)CCNc2cnc3ccccc3c2)c1` (stereo not drawn) [Example 3] is 25 to 50 µM; for `COc1ccccc1C(C)C(F)CNc1cccc2cccnc12` (stereo not drawn) [Example 25] it is 3.73 ± 0.46 µM; for `CC(CNc1cccc2nccnc12)C(C)c1cc(Cl)ccc1Cl` (stereo not drawn) [Example FLS-114] it is 6.4 µM. For `CC(CCNc1cnc2ccccc2c1)c1ccccc1` (stereo not drawn) [Example 7], the IC50 is above 50 µM. The figure for `COc1ccccc1C(C)CCNc1ccccc1` (stereo not drawn) [Example 44] is above 50 µM. The compound `COc1ccccc1C(C)CC(=O)Nc1ccccc1` (stereo not drawn) [Example 45] displayed an IC50 above 50 µM. Next, `CCC(CC(=O)Nc1cccc2cccnc12)c1ccccc1OC` (stereo not drawn) [Example 33]: 5.3 ± 0.31 µM; `CC(CCNc1cccc2cccnc12)c1ccccc1Br` (stereo not drawn) [Example 50]: 2.92 ± 1.26 µM.

Consider `COc1ccccc1C(C)CC(=O)Nc1cccc2nccnc12` (stereo not drawn) [Example 39], for which the IC50 is above 50 µM. The figure for `Cc1ccccc1C(C)CC(=O)Nc1cccc2cccnc12` (stereo not drawn) [Example 24] is above 50 µM; for `COc1ccccc1C(C)CCNc1cccc2nccnc12` (stereo not drawn) [Example 38] it is 3.61 ± 0.54 µM; for `COc1ccccc1CCCNc1cccc2cccnc12` [Example 30] it is 12.1 ± 8.44 µM. `CC(CCNc1cccc2cccnc12)c1ccccc1Cl` (stereo not drawn) [Example 21] had an IC50 of 1.2 ± 0.52 µM. The figure for `COc1ccccc1C(C)C(C)C(=O)Nc1cccc2cccnc12` (stereo not drawn) [Example 29] is 11.5 ± 7.71 µM; for `CCC(CCNc1cccc2cccnc12)c1ccccc1OC` (stereo not drawn) [Example 32] it is 2.25 ± 0.33 µM; for `COc1ccccc1C(C)CCNc1ccc2ncccc2c1` (stereo not drawn) [Example 13] it is 23.4 ± 0.6 µM.

For the compound `COc1ccccc1C(C)CC(=O)Nc1cccc2ccccc12` (stereo not drawn) [Example 41], the IC50 was found to be 29.2 ± 17.8 µM. The figure for `COc1ccccc1C(C)CCNc1cccc2cccnc12` (stereo not drawn) [Example 19] is 1.28 ± 0.16 µM; for `CC(CCNc1ccc(Br)c2cccnc12)c1ccccc1Cl` (stereo not drawn) [FH000006-K-6] it is 7.9 µM; for `CC(CNc1cccc2nccnc12)C(C)c1ccc(Cl)cc1Cl` (stereo not drawn) [Example DV7016] it is 23.1 µM.

Compound `CC(CCC(=O)Nc1cccc2cccnc12)c1ccccc1Cl` (stereo not drawn) [FH000006-K-8-A] had an IC50 of 4.5 µM. Next, `CC(CC(=O)Nc1cccc2cccnc12)c1ccccn1` (stereo not drawn) [Example 35]: above 50 µM; `COc1ccc(C(C)CCNc2ccc3ncccc3c2)cc1` (stereo not drawn) [Example 9]: 2.41 ± 0.04 µM.

One may read the IC50 as the point on the concentration scale where inhibition reaches its midpoint. A low value points to inhibition by little substance.
